The values that follow come from patent US6403055B1, “Diagnostic imaging contrast agent with improved in serum relaxivity” (Dibra S.p.A., priority 1996, dated 2002).

SMILES strings stand for the structures.

Data set [1] can be described thus: Relaxivity (r1, r2) in saline. It is filed as physicochemical. The conditions noted are these: NaCl 0.15M in water - pH 7.3 - 20 MHz - 39° C. The text has this:
(§1) Relaxivity values of the contrast agent of the present invention have been tested either in saline or in human serum obtained by Seronorm™ Human, freeze-dried human serum produced by Nycomed Pharma AS, Oslo, Norway. Serum obtained from said Seronorm™ is substantially equivalent to the fresh one, so its use in the relaxivity determination grants a good picture of the “in vivo” behaviour and, further, an excellent reproducibility of this test.

The nature of data set [2]: Relaxivity (r1, r2) in human serum (Seronorm™ Human). It is filed as physicochemical. The conditions noted are these: Between 0 and 1 mM (Seronorm™ Human) - 20 MHz - 39° C.
Text: as §1
The compounds object of the present invention are characterised by very high r1 and r2 relaxivity values. When measured in Seronorm™ Human at 20 MHz, at a temperature of 39° C., and at a concentration comprised from 0 to 1 mM, the compounds of the present invention have r1 relaxivity equal to or, preferably, higher than 15 s^−1mm^−1.

Take `CCC(C)C(C(=O)[O-])N(CCN(CCN(CC(=O)[O-])C(C(=O)[O-])C(C)CC)[C@H](C(=O)[O-])[C@@H](C)CC)CC(=O)[O-].[Gd+3].[Na+].[Na+]` (relative stereo) [Compound 2, [[[1S-[1R*(1R*,2R*),2R*]]-N,N-Bis[2-[(carboxymethyl)(1-carboxy-2-methylbutyl)amino]ethyl]-L-isoleucinate-(5-)]gadolinate(2-)]disodium salt.]: the “Relaxivity Saline r1” value in data set [1] turned out to be 5.07 mM⁻¹ s⁻¹. Moreover, the “Relaxivity Serum r1” value in data set [2] was 11.9 mM⁻¹ s⁻¹.
